Test results as given in patent US10982284B2, “Compositions and methods APC, CREB, and BAD pathways to assess and affect cancer” (H. Lee Moffitt Cancer Center and Research Institute, Inc., priority 2011, dated 2021).

How the values were obtained:
Experiment in all cases: CellTiter-Blue cell viability assay
Format in all cases: cell-based, human
Dov13 = Dov13 ovarian cancer cell line, 72 hours, 50% reduction in growth/viability
From the text: (§1) Ovarian cancer cell lines were obtained from the American Type Culture Collection (Manassas, Va.) (CAOV3, OV90, OVCAR3, SKOV3, TO[…]); from the European Collection of Cell Cultures, Salisbury, UK (A2780CP, A2780S); or from Kyoto University, Kyoto, Japan ([…], Tyknu, and TyknuC is R) or were kind gifts from Dr. Patricia Kruk, Department of Pathology, College of Medicine, University of South Florida, Tampa, Fla., and Susan Murphy, PhD, Dept of OBGYN/Division of GYN Oncology, Duke University, Durham, N.C. […] Cell lines were maintained in RPMI-1640 (Invitrogen, Carlsbad, Calif.) supplemented with 10% fetal bovine serum (Fisher Scientific, Pittsburgh, Pa.), 1% sodium pyruvate, 1% penicillin/streptomycin (Cellgro, Manassas, Va.), and 1% nonessential amino acids (HyClone, Hudson, N.H.). Mycoplasma testing was performed every 6 months following manufacturer's protocol (Lonza, Rockland, Me.). Drug activity was evaluated using a high-throughput CellTiter-Blue cell viability assay. […] After cell adherence, increasing concentrations of cisplatin, carboplatin (Sigma-Aldrich, St. Louis, Mo.), paclitaxel (Sequoia Research Products Ltd., Pangbourne, UK), or carboplatin plus paclitaxel (carbotaxol: constant molar ratio of carboplatin to paclitaxel of 20,000:1) were added to appropriate wells using an automated pipetting station. Four replicate wells were used for each drug concentration and vehicle controls. […] The cells were incubated with the drug for 72 hours, and 5 μL of CellTiter-Blue reagent (Promega Corp) was added to each well. Fluorescence was read at […] using a Synergy 4 microplate reader (Bio-Tek Instruments, Inc., Winooski, Vt.).

CAOV3 = CAOV3 ovarian cancer cell line, 72 hours, 50% reduction in growth/viability
From the text: as §1

A2780S = A2780S ovarian cancer cell line, 72 hours, 50% reduction in growth/viability
From the text: as §1

OVCAR2 = OVCAR2 ovarian cancer cell line, 72 hours, 50% reduction in growth/viability
From the text: as §1

OVCA433 = OVCA433 ovarian cancer cell line, 72 hours, 50% reduction in growth/viability
From the text: as §1

OVCAR10 = OVCAR10 ovarian cancer cell line, 72 hours, 50% reduction in growth/viability
From the text: as §1

OVCAR3 = OVCAR3 ovarian cancer cell line, 72 hours, 50% reduction in growth/viability
From the text: as §1

MCAS = MCAS ovarian cancer cell line, 72 hours, 50% reduction in growth/viability
From the text: as §1

SK-OV-4 = SK-OV-4 ovarian cancer cell line, 72 hours, 50% reduction in growth/viability
From the text: as §1

Tyknu = Tyknu ovarian cancer cell line, 72 hours, 50% reduction in growth/viability
From the text: as §1

CHI = CHI ovarian cancer cell line, 72 hours, 50% reduction in growth/viability
From the text: as §1

SKOV3 = SKOV3 ovarian cancer cell line, 72 hours, 50% reduction in growth/viability
From the text: as §1

OV2008 = OV2008 ovarian cancer cell line, 72 hours, 50% reduction in growth/viability
From the text: as §1

OVCAR4 = OVCAR4 ovarian cancer cell line, 72 hours, 50% reduction in growth/viability
From the text: as §1

FUOV1 = FUOV1 ovarian cancer cell line, 72 hours, 50% reduction in growth/viability
From the text: Ovarian cancer cell lines were obtained from the American Type Culture Collection (Manassas, Va.) (CAOV3, OV90, OVCAR3, SKOV3, TOV112D); from the European Collection of Cell Cultures, Salisbury, UK (A2780CP, A2780S); or from Kyoto University, Kyoto, Japan (CHI, CHIcisR, M41, M41CSR, Tyknu, and TyknuC is R) or were kind gifts from Dr. Patricia Kruk, Department of Pathology, College of Medicine, University of South Florida, Tampa, Fla., and Susan Murphy, PhD, Dept of OBGYN/Division of GYN Oncology, Duke University, Durham, N.C. (A2008, C13, CAOV2, FUOV1, HeyA8, IGR-OV1, IMCC3, IMCC5, MCAS, OV2008, OVCA420, OVCA429, OVCA432, OVCA433, OVCAR4, OVCAR5, OVCAR8, Dov13, BG1, Ovary1847, OVCAR10, OVCAR2, SK-OV-4).
Cell lines were maintained in RPMI-1640 (Invitrogen, Carlsbad, Calif.) supplemented with 10% fetal bovine serum (Fisher Scientific, Pittsburgh, Pa.), 1% sodium pyruvate, 1% penicillin/streptomycin (Cellgro, Manassas, Va.), and 1% nonessential amino acids (HyClone, Hudson, N.H.). […]
Drug activity was evaluated using a high-throughput CellTiter-Blue cell viability assay. […] Fluorescence was read at […] using a Synergy 4 microplate reader (Bio-Tek Instruments, Inc., Winooski, Vt.). IC50 results were determined using a sigmoidal equilibrium model fit (XLfit 5.2, ID Business Solutions Ltd.). […]

Structure (SMILES): CC(=O)O[C@H]1C(=O)[C@@]2(C)[C@H]([C@H](OC(=O)c3ccccc3)[C@]3(O)C[C@H](OC(=O)[C@H](O)[C@@H](NC(=O)c4ccccc4)c4ccccc4)C(C)=C1C3(C)C)[C@]1(OC(C)=O)CO[C@@H]1C[C@@H]2O [Paclitaxel, paclitaxel]
- IC50 (Dov13; Homo sapiens): 0.0173 µM
- IC50 (CAOV3; Homo sapiens, Caov-3): 0.0046 µM
- IC50 (A2780S; Homo sapiens): 0.0024 µM
- IC50 (OVCAR2; Homo sapiens): 0.0028 µM
- IC50 (OVCA433; Homo sapiens): 0.0021 µM
- IC50 (OVCAR10; Homo sapiens): 0.0071 µM
- IC50 (OVCAR3; Homo sapiens, OVCAR-3): 0.0169 µM
- IC50 (MCAS; Homo sapiens): 0.0029 µM
- IC50 (SK-OV-4; Homo sapiens): 0.0023 µM
- IC50 (Tyknu; Homo sapiens): 0.0083 µM
- IC50 (CHI; Homo sapiens): 0.000999 µM
- IC50 (SKOV3; Homo sapiens, SK-OV-3): 0.0887 µM
- IC50 (OV2008; Homo sapiens): 0.0139 µM
- IC50 (OVCAR4; Homo sapiens, OVCAR-4): 0.0178 µM
- IC50 (FUOV1; Homo sapiens): 4.4 µM

Structure (SMILES): N.N.O=C([O-])C1(C(=O)[O-])CCC1.[Pt+2] [Carboplatin, carboplatin]
- IC50 (Dov13): 104 µM
- IC50 (CAOV3): 69.4 µM
- IC50 (A2780S): 24.3 µM
- IC50 (OVCAR2): 45.5 µM
- IC50 (OVCA433): 270 µM
- IC50 (OVCAR10): 128 µM
- IC50 (OVCAR3): 83.7 µM
- IC50 (MCAS): 237 µM
- IC50 (SK-OV-4): 23 µM
- IC50 (Tyknu): 9.6 µM
- IC50 (CHI): 23.6 µM
- IC50 (SKOV3): 247 µM
- IC50 (OV2008): 45.1 µM
- IC50 (OVCAR4): 72 µM
- IC50 (FUOV1): 87.9 µM
